In ChEMBL document CHEMBL5550219, “Distinct Amino Acid-Based PROTACs Target Oncogenic Kinases for Degradation in Non-Small Cell Lung Cancer (NSCLC)” (J Med Chem, 2024):
Calls of active or inactive are those of the source. The calls are words filed in the database; no cut-off is given here.

Columns and labels:
SH-SY5Y = assay: Effect on ALK F1174L mutant in human SH-SY5Y cells upto 20 uM incubated for 48 hrs by immunoblot analysis; type: functional, cell-based
NCI-H3122 [1] = assay: Induction of cell cycle arrest at S phase in human NCI-H3122 cells at 5 uM incubated for 48 hrs by flow cytometry (reference value: 25.7 +/- 0.4 %); type: functional
HEK-293T = assay: Inhibition of cell viability in HEK293T cells upto 20 uM incubated for 48 hrs by CCK8 assay; type: toxicity, cell-based; conditions: human
A549 = assay: Effect on wild-type EGFR expression in human A549 cells upto 20 uM incubated for 72 hrs by immunoblot analysis; type: functional, cell-based
SK-N-BE(2) = assay: Effect on wild-type ALK in human SK-N-BE(2) cells upto 20 uM incubated for 48 hrs by immunoblot analysis; type: functional, cell-based
NCI-H3122 [2] = assay: Induction of cell cycle arrest at G1 phase in human NCI-H3122 cells at 10 uM incubated for 48 hrs by flow cytometry (reference value: 64.9 +/- 0.6 %); type: functional
NCI-H3122 [3] = assay: Inhibition of cell viability in human NCI-H3122 cells harboring sgGID4 incubated for 48 hrs by CCK8 assay; type: functional, cell-based
NCI-H1975 [4] = assay: Induction of cell cycle arrest at G2 phase in human NCI-H1975 cells at 10 uM incubated for 72 hrs by flow cytometry (reference value: 43.4 +/- 1.5 %); type: functional
NCI-H3122 [5] = assay: Induction of cell cycle arrest at G1 phase in human NCI-H3122 cells at 5 uM incubated for 48 hrs by flow cytometry (reference value: 64.9 +/- 0.6 %); type: functional
NCI-H1975 [6] = assay: Induction of cell cycle arrest at S phase in human NCI-H1975 cells at 20 uM incubated for 72 hrs by flow cytometry (reference value: 12.1 +/- 0.7 %); type: functional
NCI-H1975 [7] = assay: Induction of cell cycle arrest at G2 phase in human NCI-H1975 cells at 20 uM incubated for 72 hrs by flow cytometry (reference value: 43.4 +/- 1.5 %); type: functional
[8] = Half life in mouse at 50 mg/kg, ip measured for 12 hrs by HPLC analysis; type: ADME, organism-based; conditions: in vivo
[9] = AUC (0 to t) in mouse at 50 mg/kg, ip measured for 12 hrs by HPLC analysis; type: ADME, organism-based; conditions: in vivo
NCI-H3122 [10] = assay: Inhibition of cell viability in human NCI-H3122 cells incubated for 48 to 72 hrs by CCK8 assay
NCI-H1975 [11] = assay: Induction of apoptosis in human NCI-H1975 cells assessed as increase in early apoptotic cells incubated for 72 hrs by Annexin V-FITC/PI staining based flow cytometry; type: functional, cell-based; conditions: dose 10-20 µM
[12] = AUC (0 to t) in mouse at 2 mg/kg, iv measured for 12 hrs by HPLC analysis; type: ADME, organism-based; conditions: in vivo
NCI-H1975 [13] = assay: Induction of cell cycle arrest at G1 phase in human NCI-H1975 cells at 20 uM incubated for 72 hrs by flow cytometry (reference value: 44.5 +/- 1.5 %); type: functional
NCI-H1299 = assay: Effect on wild-type EGFR expression in human NCI-H1299 cells upto 20 uM incubated for 72 hrs by immunoblot analysis; type: functional, cell-based
[14] = Tmax in mouse at 50 mg/kg, ip measured for 12 hrs by HPLC analysis; type: ADME, organism-based; conditions: in vivo
[15] = Cmax in mouse at 50 mg/kg, ip measured for 12 hrs by HPLC analysis; type: ADME, organism-based; conditions: in vivo
NCI-H1975 [16] = assay: Inhibition of cell viability in human NCI-H1975 cells harboring sgGID4 incubated for 72 hrs by CCK8 assay; type: functional, cell-based
[17] = Half life in mouse at 2 mg/kg, iv measured for 12 hrs by HPLC analysis; type: ADME, organism-based; conditions: in vivo
[18] = Tmax in mouse at 2 mg/kg, iv measured for 12 hrs by HPLC analysis; type: ADME, organism-based; conditions: in vivo
[19] = […] measured for 12 hrs by HPLC analysis; type: ADME, organism-based; conditions: in vivo
NCI-H1975 [20] = assay: Inhibition of cell viability in human NCI-H1975 cells incubated for 48 to 72 hrs by CCK8 assay
NCI-H1975 [21] = assay: Induction of apoptosis in human NCI-H1975 cells assessed as increase in late apoptotic cells incubated for 72 hrs by Annexin V-FITC/PI staining based flow cytometry; type: functional, cell-based; conditions: dose 10-20 µM
NCI-H3122 [22] = assay: Induction of cell cycle arrest at G2 phase in human NCI-H3122 cells at 5 uM incubated for 48 hrs by flow cytometry (reference value: 9.4 +/- 0.5 %); type: functional
NCI-H1975 [23] = assay: Induction of cell cycle arrest at S phase in human NCI-H1975 cells at 10 uM incubated for 72 hrs by flow cytometry (reference value: 12.1 +/- 0.7 %); type: functional
[24] = Cmax in mouse at 2 mg/kg, iv measured for 12 hrs by HPLC analysis; type: ADME, organism-based; conditions: in vivo
PC-9 = assay: Effect on EGFR del19 mutant expression in human PC-9 cells upto 20 uM incubated for 72 hrs by immunoblot analysis; type: functional, cell-based
NCI-H3122 [25] = assay: Induction of apoptosis in human NCI-H3122 cells assessed as increase in early apoptotic cells incubated for 48 hrs by Annexin V-FITC/PI staining based flow cytometry; type: functional, cell-based; conditions: dose 5-10 µM
NCI-H3122 [26] = assay: Induction of apoptosis in human NCI-H3122 cells assessed as increase in late apoptotic cells incubated for 48 hrs by Annexin V-FITC/PI staining based flow cytometry; type: functional, cell-based; conditions: dose 5-10 µM
NCI-H3122 [27] = assay: Induction of cell cycle arrest at G2 phase in human NCI-H3122 cells at 10 uM incubated for 48 hrs by flow cytometry (reference value: 9.4 +/- 0.5 %); type: functional
NCI-H1975 [28] = assay: Induction of cell cycle arrest at G1 phase in human NCI-H1975 cells at 10 uM incubated for 72 hrs by flow cytometry (reference value: 44.5 +/- 1.5 %); type: functional
NCI-H3122 [29] = assay: Induction of cell cycle arrest at S phase in human NCI-H3122 cells at 10 uM incubated for 48 hrs by flow cytometry (reference value: 25.7 +/- 0.4 %); type: functional

half-life [8]: 5.18 h
AUC(0-t) at 12 h [9]: 80800 ng·h/mL
IC50 (NCI-H3122 [10]): 0.16 µM
AUC(0-t) at 12 h [12]: 6080 ng·h/mL
Tmax [14]: 0.5 h
Cmax [15]: 33000 ng/mL
half-life [17]: 2.87 h
Tmax [18]: 4.98 min
bioavailability [19]: 53.2%
IC50 (NCI-H1975 [20]): 8.8 µM
Cmax [24]: 3720 ng/mL
Compound: COc1cc(N2CCN(C(=O)CCOCCOCCOCCNC(=O)[C@@H]3CCCN3)CC2)ccc1Nc1ncc(Cl)c(Nc2ccccc2P(C)(C)=O)n1
Activity (SH-SY5Y): inactive
Activity (NCI-H3122 [1]): 7.3%
Activity (HEK-293T): Non-Toxic
Activity (A549): inactive
Activity (SK-N-BE(2)): inactive
Activity (NCI-H3122 [2]): 90.4%
inhibition (NCI-H3122 [3]): inactive
Activity (NCI-H1975 [4]): 32.5%
Activity (NCI-H3122 [5]): 84.2%
Activity (NCI-H1975 [6]): 5.7%
Activity (NCI-H1975 [7]): 15.9%
Activity (NCI-H1975 [11]): Dose-Dependent Effect
Activity (NCI-H1975 [13]): 78.4%
Activity (NCI-H1299): inactive
inhibition (NCI-H1975 [16]): inactive
Activity (NCI-H1975 [21]): Dose-Dependent Effect
Activity (NCI-H3122 [22]): 8.1%
Activity (NCI-H1975 [23]): 10.2%
Activity (PC-9): inactive
Activity (NCI-H3122 [25]): Dose-Dependent Effect
Activity (NCI-H3122 [26]): Dose-Dependent Effect
Activity (NCI-H3122 [27]): 5.5%
Activity (NCI-H1975 [28]): 57.3%
Activity (NCI-H3122 [29]): 3.9%
